Entries after “also recorded” stand apart in the source; their conditions may differ.
Legend:
curly-leaf pondweed = experiment: Greenhouse concentration and exposure trial on curly-leaf pondweed; assay type: in vivo, Potamogeton crispus
Description: Error bars are +1 standard deviation (n=3).
Relative to control of invasive curly-leaf pondweed (or CLP), greenhouse studies of penoxsulam concentration and exposure requirements to achieve control of this species have documented that exposure periods of 3-7 days to 3-6 ppb penoxsulam can provide effective control. FIG. 10 presents results of a representative greenhouse trial of penoxsulam treatment of CLP. 13-cm diameter pots were filled with potting soil amended with Osmocote slow release fertilizer (14-14-14). Four apical CLP tips, harvested from a culture at the SRTC, were planted into each pot. A one-inch sand cap was placed over the potting soil and submersed into 54 gallon tubs to allow for grow-out. At 19 days after planting, the five tubs were treated with 0, 3, 6, 12, or 24 ppb penoxsulam. Three pots per treatment were pulled out and placed into a common grow-out tank at 1, 3, 7, and 14 days after treatment (DAT). Once the plants were allowed to grow out for 28 DAT the plants were harvested to determine aboveground dry weight (48 hours at 70° C.).

fish = details: cited from earlier work
Eurasian watermilfoil [1] = experiment: 14C herbicide uptake study, shoot exposure; assay type: in vivo, Myriophyllum spicatum
Description: Plants were allowed to equilibrate overnight prior to treatment. […] Plants were separated into aboveground and belowground segments. […] After drying, plants were weighed and biomass recorded.

Eurasian watermilfoil [2] = experiment: 14C-triclopyr uptake study, root exposure; assay type: in vivo, Myriophyllum spicatum; details: root exposure, 200,000 dpm 14C-triclopyr
Experimental: Threshold absorption is reached within 12-24 hours for below ground tissue and near-maximum translocation to aboveground tissue is reached within 48 hours.
Prior to the experiment, plants were transplanted into glass jars filled with water plus a diluted growth media (Hoagland's Solution) and an eicosane wax plug was added to separate aboveground and belowground portions of the plant. Plants were allowed to equilibrate in this solution for 5 days. The root zone of each plant was treated with 200,000 dpm of 14C-triclopyr. Plants were then moved into 3 gallon tanks with other treated plants. Treatments were replicated 3 times and harvested at 12, 24, 48, 96, 192 HAT. Upon harvest, plants were separated into aboveground and belowground portions, dried, weighed and biomass recorded.

hydrilla = details: Hydrilla verticillata (hydrilla), in vivo
Experimental: Eurasian watermilfoil or hydrilla apical fragments were collected from infested field sites and grown in topsoil cultures in greenhouse conditions until needed for uptake experiments. For uptake studies, 15 cm apical fragments were planted in glass jars in topsoil with a sand cap. Plants were allowed to grow in 30 L tanks until rooted (˜14 days). Prior to experiments plants were removed from water and agarose gel (1.5%) was added to each sand cap surface in each jar to avoid root exposure. Three plants of each species were then placed in 4 L plastic containers containing 3 L of dechlorinated tap water. Plants were allowed to equilibrate overnight prior to treatment. During the study, plants were maintained at room temperature (25° C.) under grow lights. Six containers were treated for each experiment using the following aboveground (i.e., above gel layer and into shoot section) treatments of ^14C-radiolabeled herbicide: Fluridone—10 ppb, Penoxsulam—10 ppb, Triclopyr—1,000 ppb (10 ppb ^14C, remainder ‘cold’ material). All radiolabeled dosing of 10 ppb equated to 222,000 DPM of 14C herbicide. The selected total herbicide rates corresponded to typical use rates for these three aquatic herbicides. […] After drying, plants were weighed and biomass recorded. Plants were then burned using a biological sample oxidizer and radioactivity quantified using liquid scintillation spectroscopy (LSS). […]

[3] = shoot exposure, triclopyr 1,000 ppb, FIG. 1A, hydrilla and Eurasian milfoil not distinguished in text

For `COc1cnc(OC)n2nc(NS(=O)(=O)c3c(OCC(F)F)cccc3C(F)(F)F)nc12` [penoxsulam, 2-(2,2-difluoroethoxy)-6-(trifluoromethyl)-N-(5,8-dimethoxy[1,2,4]triazolo-[1,5c]pyrimidin-2-yl)-benzenesulfonamide], the “exposure period providing effective control” value (curly-leaf pondweed; 3-6 ppb penoxsulam) was 3 to 7 days and the “penoxsulam concentration providing effective control” value (curly-leaf pondweed; exposure periods of 3-7 days) was 3-6 ppb.
In the case of `CCN(CC)CC.O=C(O)COc1nc(Cl)c(Cl)cc1Cl` [Triclopyr triethylamine], the “toxicity to creatures such as fish versus butoxyethyl ester of triclopyr” value (fish; in vivo) is listed as “substantially less toxic”.
For `O=C(O)COc1nc(Cl)c(Cl)cc1Cl` [triclopyr, 3,5,6-trichloro-2-pyridyloxyacetic acid], the “time to maximum uptake” value (Eurasian watermilfoil [1]; Myriophyllum spicatum (Eurasian watermilfoil), in vivo) was at most 96 h, the “dose-corrected maximum uptake versus fluridone and penoxsulam” value (Eurasian watermilfoil [1]; shoot exposure, Eurasian milfoil, FIG. 1B) was “Greater dose-corrected uptake; also recorded: much greater on a dose-corrected basis” and the “time to threshold levels in aboveground tissues” value (Eurasian watermilfoil [1]; [3]) was 48 to 96 h. The “time to threshold levels in belowground tissues” value (Eurasian watermilfoil [1]; [3]) was 6 to 12 h, the “time to near-maximum translocation to aboveground tissue” value (Eurasian watermilfoil [2]) was at most 48 h and the “time to threshold uptake in belowground tissue” value (Eurasian watermilfoil [2]) was 12 to 24 h. For the same compound, the “time to maximum uptake” value (hydrilla) was at most 96 h.
For `CNC.O=C(O)COc1ccc(Cl)cc1Cl` [2,4-d dimethylamine salt], the “toxicity to creatures such as fish versus butoxyethyl ester of 2,4-d” value (fish; US EPA 2,4-D Re-Registration Eligibility Decision 2005) is listed as “substantially less toxic”.

Source: patent US9137987B2, “Moderated release aquatic herbicide formulations” (SePro Corporation, priority 2011, dated 2015)
